Assay results from US10526327B2, “Histone demethylase inhibitors” (CELGENE QUANTICEL RESEARCH, INC., priority 2013, dated 2020).

Target: T1, Jarid1A (Homo sapiens, UniProt P29375)
T1 construct: purchased BPS Bioscience 50110
T1 sequence (P29375 1-1090): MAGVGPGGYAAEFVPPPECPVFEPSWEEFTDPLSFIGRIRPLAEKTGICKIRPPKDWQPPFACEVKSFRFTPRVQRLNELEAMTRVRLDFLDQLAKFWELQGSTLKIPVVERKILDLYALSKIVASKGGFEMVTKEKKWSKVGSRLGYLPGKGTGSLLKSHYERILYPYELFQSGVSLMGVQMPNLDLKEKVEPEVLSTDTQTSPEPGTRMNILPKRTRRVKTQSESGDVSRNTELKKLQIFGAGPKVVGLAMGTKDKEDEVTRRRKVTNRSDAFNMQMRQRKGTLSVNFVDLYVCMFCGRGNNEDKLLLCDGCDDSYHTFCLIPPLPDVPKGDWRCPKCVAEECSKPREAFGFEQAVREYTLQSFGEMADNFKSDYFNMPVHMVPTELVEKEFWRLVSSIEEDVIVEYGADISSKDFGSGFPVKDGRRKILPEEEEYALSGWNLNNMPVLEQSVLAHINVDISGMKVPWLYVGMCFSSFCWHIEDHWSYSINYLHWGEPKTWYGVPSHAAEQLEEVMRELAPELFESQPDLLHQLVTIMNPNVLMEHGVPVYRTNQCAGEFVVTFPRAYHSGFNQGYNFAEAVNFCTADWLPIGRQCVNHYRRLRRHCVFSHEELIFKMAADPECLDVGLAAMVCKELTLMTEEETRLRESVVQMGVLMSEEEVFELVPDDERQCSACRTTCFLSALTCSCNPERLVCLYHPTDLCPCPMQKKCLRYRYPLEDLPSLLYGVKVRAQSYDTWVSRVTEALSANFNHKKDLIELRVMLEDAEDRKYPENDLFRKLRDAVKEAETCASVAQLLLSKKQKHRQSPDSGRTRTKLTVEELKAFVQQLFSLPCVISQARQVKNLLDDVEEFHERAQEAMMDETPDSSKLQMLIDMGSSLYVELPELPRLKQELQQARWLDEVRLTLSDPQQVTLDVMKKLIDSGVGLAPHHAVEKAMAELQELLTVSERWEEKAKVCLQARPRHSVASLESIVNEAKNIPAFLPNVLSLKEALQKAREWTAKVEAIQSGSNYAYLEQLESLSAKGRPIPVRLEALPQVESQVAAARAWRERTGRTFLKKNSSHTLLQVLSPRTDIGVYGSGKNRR
Test: Jarid1A in vitro enzyme inhibition assay (TR-FRET)
Format: biochemical
From the text: This assay determines the ability of a test compound to inhibit Jarid1A, Jarid1B, and JMJD2C demethylase activity. Baculovirus expressed Jarid1A (GenBank Accession #NM_001042603, AA1-1090) was purchased from BPS Bioscience (Cat#50110). Baculovirus expressed Jarid1B (GenBank Accession #NM_006618, AA 2-751) was purchased from BPS Bioscience (Cat #50121) or custom made by MolecularThroughput. Baculovirus expressed JMJD2C (GenBank Accession #BC143571, AA 2-372) was purchased from BPS Bioscience (Cat#50105).
The enzymatic assay of Jarid1A activity is based upon Time Resolved-Fluorescence Resonance Energy Transfer (TR-FRET) detection. The ability of test compounds to inhibit the activity of Jarid1A was determined in 384-well plate format under the following reaction conditions: 1 nM Jarid1A, 300 nM H3K4me3-biotin labeled peptide (Anaspec cat #64357), 2 μM alpha-ketoglutaric acid in assay buffer of 50 mM HEPES, pH7.3, 0.005% Brij35, 0.5 mM TCEP, 0.2 mg/ml BSA, 50 μM sodium L-ascorbate, and 2 μM ammonium iron(II) sulfate. Reaction product was determined quantitatively by TR-FRET after the addition of detection reagent Phycolink Streptavidin-allophycocyanin (Prozyme) and Europium-anti-mono-or di-methylated histone H3 lysine 4 (H3K4me1-2) antibody (PerkinElmer) in the presence of 5 mM EDTA in LANCE detection buffer (PerkinElmer) at a final concentration of 25 nM and 1 nM, respectively.
The assay reaction was initiated by the following: 2 μl of the mixture of 900 nM H3K4me3-biotin labeled peptide and 6 μM alpha-ketoglutaric acid with 2 μl of 11-point serial diluted inhibitor in 3% DMSO was added to each well of plate, followed by the addition of 2 μl of 3 nM Jarid1A to initiate the reaction. The reaction mixture was incubated at room temperature for 30 minutes, and terminated by the addition of 6 μl of 5 mM EDTA in LANCE detection buffer containing 50 nM Phycolink Streptavidin-allophycocyanin and 2 nM Europium-anti-H3K4me1-2 antibody. Plates were read by EnVisionMultilabel Reader in TR-FRET mode (excitation at 320 nm, emission at 615 nm and 665 nm) after 1 hour incubation at room temperature. A ratio was calculated (665/615) for each well and fitted to determine inhibition constant (IC50).

Row | SMILES | IC50
1 | CCOc1nc(O)c2ccnc(-c3cn(C)cn3)c2n1 [Example 69, 2-ethoxy-8-(1-methyl-1H-imidazol-4-yl)pyrido[3,4-d]pyrimidin-4-ol] | ≤ 100 nM
2 | Cn1cnc(-c2nccc3c(O)nc(OCC4CCOCC4)nc23)c1 [Example 102, 8-(1-methyl-1H-imidazol-4-yl)-2-(oxan-4-ylmethoxy)pyrido[3,4-d]pyrimidin-4-ol] | 100 to 1000 nM
3 | Oc1nc(OCc2ccccc2)nc2cnccc12 [Example 4, 2-phenylmethoxypyrido[3,4-d]pyrimidin-4-ol] | 100 to 1000 nM
4 | CCCc1cccc(Oc2nc(O)c3ccncc3n2)c1 [Example 58, 2-(3-propylphenoxy)pyrido[3,4-d]pyrimidin-4-ol] | ≤ 100 nM
5 | COc1c(F)cc(Oc2nc(O)c3ccncc3n2)cc1F [Example 43, 2-(3,5-difluoro-4-methoxyphenoxy)pyrido[3,4-d]pyrimidin-4-ol] | ≤ 100 nM
6 | Cn1cnc(-c2nccc3c(O)nc(Oc4ccc5cnn(C)c5c4)nc23)c1 [Example 83, 8-(1-methylimidazol-4-yl)-2-(1-methylindazol-6-yl)oxypyrido[3,4-d]pyrimidin-4-ol] | ≤ 100 nM
7 | OCCOc1nc(O)c2ccncc2n1 [Example 3, 2-(2-hydroxyethoxy)pyrido[3,4-d]pyrimidin-4-ol] | ≤ 100 nM
8 | Oc1nc(Oc2cccc(C(F)(F)F)c2)nc2cnccc12 [Example 52, 2-[3-(trifluoromethyl)phenoxy]pyrido[3,4-d]pyrimidin-4-ol] | ≤ 100 nM
9 | Cn1cnc(-c2nccc3c(O)nc(OCC4CC4)nc23)c1 [Example 72, 2-(cyclopropylmethoxy)-8-(1-methylimidazol-4-yl)pyrido[3,4-d]pyrimidin-4-ol] | ≤ 100 nM
10 | Oc1nc(OCC(F)(F)F)nc2cnccc12 [Example 12, 2-(2,2,2-trifluoroethoxy)pyrido[3,4-d]pyrimidin-4-ol] | ≤ 100 nM
11 | Oc1nc(Oc2cnn(Cc3ccc(F)cc3)c2)nc2cnccc12 [Example 86, 2-[1-(4-fluorobenzyl)pyrazol-4-yl]oxypyrido[3,4-d]pyrimidin-4-ol] | ≤ 100 nM
12 | Oc1nc(Oc2cnn(Cc3ccccc3)c2)nc2cnccc12 [Example 66, 2-[(1-benzyl-1H-pyrazol-4-yl)oxy]pyrido[3,4-d]pyrimidin-4-ol] | ≤ 100 nM
13 | Cn1cnc(-c2nccc3c(O)nc(OCC(F)F)nc23)c1 [Example 77, 2-(2,2-difluoroethoxy)-8-(1-methylimidazol-4-yl)pyrido[3,4-d]pyrimidin-4-ol] | ≤ 100 nM
14 | COCCOc1ccc(Oc2nc(O)c3ccnc(-c4cn(C)cn4)c3n2)cc1 [Example 82, 2-[4-(2-methoxyethoxy)phenoxy]-8-(1-methylimidazol-4-yl)pyrido[3,4-d]pyrimidin-4-ol] | ≤ 100 nM
15 | Oc1nc(OC2CCCC2)nc2cnccc12 [Example 6, 2-cyclopentyloxy-3H-pyrido[3,4-d]pyrimidin-4-one] | 100 to 1000 nM
16 | Cn1cnc(-c2nccc3c(O)nc(OCCC4CC4)nc23)c1 [Example 78, 2-(2-cyclopropylethoxy)-8-(1-methylimidazol-4-yl)pyrido[3,4-d]pyrimidin-4-ol] | ≤ 100 nM
17 | CC(C)(C)OC(=O)Nc1cccc(Oc2nc(O)c3ccncc3n2)c1 [Example 36, tert-butyl N-[3-(4-hydroxypyrido[3,4-d]pyrimidin-2-yl)oxyphenyl]carbamate] | ≤ 100 nM

Row | SMILES | IC50
18 | COCCCn1cc(Oc2nc(O)c3ccncc3n2)cn1 [Example 65, 2-{[1-(3-methoxypropyl)-1H-pyrazol-4-yl]oxy}pyrido[3,4-d]pyrimidin-4-ol] | ≤ 100 nM
19 | Cn1cnc(-c2nccc3c(O)nc(OCc4cccc(F)c4)nc23)c1 [Example 104, 2-[(3-fluorophenyl)methoxy]-8-(1-methyl-1H-imidazol-4-yl)pyrido[3,4-d]pyrimidin-4-ol] | 100 to 1000 nM
20 | CC(=O)Nc1ccc(Oc2nc(O)c3ccncc3n2)cc1 [Example 35, N-[4-(4-hydroxypyrido[3,4-d]pyrimidin-2-yl)oxyphenyl]acetamide] | ≤ 100 nM
21 | CN(C)CCOc1nc(O)c2ccnc(-c3cn(C)cn3)c2n1 [Example 76, 2-[2-(dimethylamino)ethoxy]-8-(1-methylimidazol-4-yl)pyrido[3,4-d]pyrimidin-4-ol] | 100 to 1000 nM
22 | Oc1nc(Oc2cccc(Cl)c2)nc2cnccc12 [Example 41, 2-(3-chlorophenoxy)pyrido[3,4-d]pyrimidin-4-ol] | ≤ 100 nM
23 | Oc1nc(Oc2ccc(F)c(F)c2)nc2cnccc12 [Example 37, 2-(3,4-difluorophenoxy)pyrido[3,4-d]pyrimidin-4-ol] | ≤ 100 nM
24 | Cc1nn(C)c2cc(Oc3nc(O)c4ccnc(-c5cn(C)cn5)c4n3)ccc12 [Example 85, 2-(1,3-dimethylindazol-6-yl)oxy-8-(1-methylimidazol-4-yl)pyrido[3,4-d]pyrimidin-4-ol] | ≤ 100 nM
25 | Cn1cnc(-c2nccc3c(O)nc(Oc4cnn(Cc5ccccc5)c4)nc23)c1 [Example 79, 2-(1-benzylpyrazol-4-yl)oxy-8-(1-methylimidazol-4-yl)pyrido[3,4-d]pyrimidin-4-ol] | ≤ 100 nM
26 | CC(C)CCn1cc(Oc2nc(O)c3ccncc3n2)cn1 [Example 55, 2-{[1-(3-methylbutyl)pyrazol-4-yl]oxy}pyrido[3,4-d]pyrimidin-4-ol] | ≤ 100 nM
27 | Cn1cnc(-c2nccc3c(O)nc(OCc4ccccc4Cl)nc23)c1 [Example 105, 2-[(2-chlorophenyl)methoxy]-8-(1-methyl-1H-imidazol-4-yl)pyrido[3,4-d]pyrimidin-4-ol] | 1000 to 10000 nM
28 | Cn1cnc(-c2nccc3c(O)nc(OCC(F)(F)F)nc23)c1 [Example 70, 8-(1-methyl-1H-imidazol-4-yl)-2-(2,2,2-trifluoroethoxy)pyrido[3,4-d]pyrimidin-4-ol] | ≤ 100 nM
29 | Cn1cnc(-c2nccc3c(O)nc(OCC4CCOC4)nc23)c1 (stereo not drawn) [Example 103, 8-(1-methyl-1H-imidazol-4-yl)-2-(oxolan-3-ylmethoxy)pyrido[3,4-d]pyrimidin-4-ol] | 100 to 1000 nM
30 | Cn1cnc(-c2nccc3c(O)nc(Oc4ccc(F)c(F)c4)nc23)c1 [Example 81, 2-(3,4-difluorophenoxy)-8-(1-methylimidazol-4-yl)pyrido[3,4-d]pyrimidin-4-ol] | ≤ 100 nM
31 | COCCn1ncc2ccc(Oc3nc(O)c4ccncc4n3)cc21 [Example 61, 2-{[1-(2-methoxyethyl)-1H-indazol-6-yl]oxy}pyrido[3,4-d]pyrimidin-4-ol] | ≤ 100 nM
32 | O=S(=O)(C1CC1)N1CCC(n2cc(Oc3nc(O)c4ccncc4n3)cn2)CC1 [Example 94, 2-[1-(1-cyclopropylsulfonylpiperidin-4-yl)pyrazol-4-yl]oxypyrido[3,4-d]pyrimidin-4-ol] | ≤ 100 nM
33 | Cn1cnc(-c2nccc3c(O)nc(OCc4cccc(Cl)c4Cl)nc23)c1 [Example 106, 2-[(2,3-dichlorophenyl)methoxy]-8-(1-methyl-1H-imidazol-4-yl)pyrido[3,4-d]pyrimidin-4-ol] | 1000 to 10000 nM
